In the assay the target is ALK2 (Homo sapiens (Human), UniProt Q04771). In words: ALK2 inhibition, LanthaScreen Eu Kinase Binding Assay (ThermoFisher Scientific / Life Technologies). The note with it: read-out: Measured Ki (IC50) Value for Compounds: IC50. On the procedure: Biochemical assays to measure the inhibitory effects of the compounds were performed by ThermoFisher Scientific (Life Technologies). ALK2 inhibition was tested using LanthaScreen™ Eu Kinase Binding Assay screening protocol.
Chain of ALK2 (Q04771 21-509): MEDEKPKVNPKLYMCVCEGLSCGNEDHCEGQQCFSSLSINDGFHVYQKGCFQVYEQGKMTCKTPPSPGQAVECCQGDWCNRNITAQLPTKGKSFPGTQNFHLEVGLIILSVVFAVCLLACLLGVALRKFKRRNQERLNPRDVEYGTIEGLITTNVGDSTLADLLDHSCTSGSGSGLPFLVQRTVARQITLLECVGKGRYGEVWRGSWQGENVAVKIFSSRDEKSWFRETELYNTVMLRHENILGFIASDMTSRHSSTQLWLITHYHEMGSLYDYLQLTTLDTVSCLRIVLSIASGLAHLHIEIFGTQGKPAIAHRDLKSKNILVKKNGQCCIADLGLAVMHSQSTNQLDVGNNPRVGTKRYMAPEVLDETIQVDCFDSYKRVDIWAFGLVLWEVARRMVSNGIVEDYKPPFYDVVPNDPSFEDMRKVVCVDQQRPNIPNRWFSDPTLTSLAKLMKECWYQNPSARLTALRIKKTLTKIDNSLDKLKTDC
(Time-resolved FRET reads energy transfer from a long-lived donor to a nearby acceptor.)
Regarding `COc1cc(-n2cnc(Nc3nc(N4CCCC4)c4c(ccn4S(=O)(=O)c4ccc(C)cc4)n3)c2)cc(OC)c1OC` [Compound 199b, 4-(pyrrolidin-1-yl)-5-tosyl-N-(1-(3,4,5-trimethoxyphenyl)-1H-imidazol-4-yl)-5H-pyrrolo[3,2-d]pyrimidin-2-amine], the IC50 was greater than 1000 nM. For the compound `COc1cc(-n2cnc(Nc3nc(N4CCC[C@H]4CO)c4cccc(OC(C)C)c4n3)c2)cc(OC)c1OC` [Compound 200b, (S)-(1-(8-isopropoxy-2-((1-(3,4,5-trimethoxyphenyl)-1H-imidazol-4-yl)amino)quinazolin-4-yl)pyrrolidin-2-yl)methanol], the IC50 was less than 100 nM. With `COc1cc(-n2cnc(Nc3ncc4c(n3)CCN(Cc3ccccc3)C4)c2)cc(OC)c1OC` [Compound 201b, 6-benzyl-N-(1-(3,4,5-trimethoxyphenyl)-1H-imidazol-4-yl)-5,6,7,8-tetrahydropyrido[4,3-d]pyrimidin-2-amine], the IC50 is less than 100 nM. Take `COc1cc(-n2cnc(Nc3ncc4c(n3)CN(Cc3ccccc3)CC4)c2)cc(OC)c1OC` [Compound 202b, 7-benzyl-N-(1-(3,4,5-trimethoxyphenyl)-1H-imidazol-4-yl)-5,6,7,8-tetrahydropyrido[3,4-d]pyrimidin-2-amine]: the IC50 was less than 100 nM.

As for `COc1cc(-n2cnc(Nc3nc(N4CCC[C@H]4C(N)=O)c4cccnc4n3)c2)cc(OC)c1OC` [Compound 203b, (S)-1-(2-((1-(3,4,5-trimethoxyphenyl)-1H-imidazol-4-yl)amino)pyrido[2,3-d]pyrimidin-4-yl)pyrrolidine-2-carboxamide], the IC50 lay in the range of 100 to 1000 nM. Consider `COc1cc(-n2cnc(Nc3nc(N4CCC[C@H]4C(N)=O)c4ccccc4n3)c2)cc(OC)c1OC` [Compound 204b, (S)-1-(2-((1-(3,4,5-trimethoxyphenyl)-1H-imidazol-4-yl)amino)quinazolin-4-yl)pyrrolidine-2-carboxamide], for which the IC50 fell in the range of 100 to 1000 nM.

`COc1cc(-n2cnc(Nc3nc(N4CCC[C@H]4C(N)=O)c4cccc(OC(C)C)c4n3)c2)cc(OC)c1OC` [Compound 205b, (S)-1-(8-isopropoxy-2-((1-(3,4,5-trimethoxyphenyl)-1H-imidazol-4-yl)amino)quinazolin-4-yl)pyrrolidine-2-carboxamide]: the IC50 fell in the range of 100 to 1000 nM. Turning to `COc1cc(-n2cnc(Nc3nc(N4CCC[C@H]4C(F)(F)F)c4cccn4n3)c2)cc(OC)c1OC` [Compound 206b, (S)-4-(2-(trifluoromethyl)pyrrolidin-1-yl)-N-(1-(3,4,5-trimethoxyphenyl)-1H-imidazol-4-yl)pyrrolo[2,1-f][1,2,4]triazin-2-amine], the IC50 is less than 100 nM.

Consider `COc1cc(-n2cnc(Nc3nc(N4CCCC4)c4sccc4n3)c2)cc(OC)c1OC` [Compound 207b, 4-(pyrrolidin-1-yl)-N-(1-(3,4,5-trimethoxyphenyl)-1H-imidazol-4-yl)thieno[3,2-d]pyrimidin-2-amine], for which the IC50 is less than 100 nM. The same measure for `COc1cc(-n2cnc(Nc3ccc4ccc(Nc5cn(-c6cc(OC)c(OC)c(OC)c6)cn5)cc4c3)c2)cc(OC)c1OC` [Compound 208b, N^2,N^7-bis(1-(3,4,5-trimethoxyphenyl)-1H-imidazol-4-yl)naphthalene-2,7-diamine]: less than 100 nM; for `COc1cc(-n2cnc(Nc3nc(N4CC[C@@H](O)C4)c4cccn4n3)c2)cc(OC)c1OC` [Compound 209b, (R)-1-(2-((1-(3,4,5-trimethoxyphenyl)-1H-imidazol-4-yl)amino)pyrrolo[2,1-f][1,2,4]triazin-4-yl)pyrrolidin-3-ol]: less than 100 nM; for `COc1cc(-n2cnc(Nc3nc(N4CCC[C@@H]4C(N)=O)nn4cccc34)c2)cc(OC)c1OC` [Compound 210a, (R)-1-(4-((1-(3,4,5-trimethoxyphenyl)-1H-imidazol-4-yl)amino)pyrrolo[2,1-f][1,2,4]triazin-2-yl)pyrrolidine-2-carboxamide]: less than 100 nM.

Regarding `COc1cc(-n2cnc(Nc3nc(N4CC[C@H](O)C4)c4cccn4n3)c2)cc(OC)c1OC` [Compound 211b, (S)-1-(2-((1-(3,4,5-trimethoxyphenyl)-1H-imidazol-4-yl)amino)pyrrolo[2,1-f][1,2,4]triazin-4-yl)pyrrolidin-3-ol], the IC50 is less than 100 nM. Take `COc1c(C(C)=O)ccc(-n2cnc(Nc3nc(N4CCC[C@H]4CO)nn4cccc34)c2)c1OC` [Compound 212g, (S)-1-(4-(4-((2-(2-(hydroxymethyl)pyrrolidin-1-yl)pyrrolo[2,1-f][1,2,4]triazin-4-yl)amino)-1H-imidazol-1-yl)-2,3-dimethoxyphenyl)ethanone]: the IC50 was less than 100 nM. Regarding `COc1cc(-n2cnc(Nc3nc4c(c(N5CCC[C@H]5C(N)=O)n3)CN(Cc3ccccc3)CC4)c2)cc(OC)c1OC` [Compound 213b, (S)-1-(6-benzyl-2-((1-(3,4,5-trimethoxyphenyl)-1H-imidazol-4-yl)amino)-5,6,7,8-tetrahydropyrido[4,3-d]pyrimidin-4-yl)pyrrolidine-2-carboxamide], the IC50 is less than 100 nM.

Consider `COc1cc(-n2cnc(Nc3nc(N4C[C@H](O)C[C@H]4CO)c4cccn4n3)c2)cc(OC)c1OC` [Compound 214b, (3R,5S)-5-(hydroxymethyl)-1-(2-((1-(3,4,5-trimethoxyphenyl)-1H-imidazol-4-yl)amino)pyrrolo[2,1-f][1,2,4]triazin-4-yl)pyrrolidin-3-ol], for which the half-maximal inhibitory concentration (IC50) was less than 100 nM. Take `COc1cc(-n2cnc(Nc3nc4c(c(N5CCC[C@H]5CO)n3)CCN(Cc3ccc(C(F)(F)F)cc3)C4)c2)cc(OC)c1OC` [Compound 215a, (S)-(1-(7-(4-(trifluoromethyl)benzyl)-2-((1-(3,4,5-trimethoxyphenyl)-1H-imidazol-4-yl)amino)-5,6,7,8-tetrahydropyrido[3,4-d]pyrimidin-4-yl)pyrrolidin-2-yl)methanol]: the IC50 is less than 100 nM. On to `COc1cc(-n2cnc(Nc3nc4c(c(N5CCC[C@H]5CO)n3)CCN(Cc3cccnc3)C4)c2)cc(OC)c1OC` [Compound 216a, (S)-(1-(7-(pyridin-3-ylmethyl)-2-((1-(3,4,5-trimethoxyphenyl)-1H-imidazol-4-yl)amino)-5,6,7,8-tetrahydropyrido[3,4-d]pyrimidin-4-yl)pyrrolidin-2-yl)methanol], for which the IC50 is less than 100 nM.

`COc1cc(-n2cnc(Nc3nc4c(c(N5CCC[C@H]5CO)n3)CCN(Cc3cccc(OC(F)(F)F)c3)C4)c2)cc(OC)c1OC` [Compound 217a, (S)-(1-(7-(3-(trifluoromethoxy)benzyl)-2-((1-(3,4,5-trimethoxyphenyl)-1H-imidazol-4-yl)amino)-5,6,7,8-tetrahydropyrido[3,4-d]pyrimidin-4-yl)pyrrolidin-2-yl)methanol]: the IC50 is less than 100 nM. The same measure for `COc1cc(-n2cnc(Nc3nc4c(c(N5CCC[C@H]5CO)n3)CCN(CC(N)=O)C4)c2)cc(OC)c1OC` [Compound 218a, (S)-2-(4-(2-(hydroxymethyl)pyrrolidin-1-yl)-2-((1-(3,4,5-trimethoxyphenyl)-1H-imidazol-4-yl)amino)-5,6-dihydropyrido[3,4-d]pyrimidin-7(8H)-yl)acetamide]: less than 100 nM. The same measure for `COc1cc(-n2cnc(Nc3nc4c(c(N5CCC[C@H]5CO)n3)CCN(Cc3ccc(C#N)cc3)C4)c2)cc(OC)c1OC` [Compound 219a, (S)-4-((4-(2-(hydroxymethyl)pyrrolidin-1-yl)-2-((1-(3,4,5-trimethoxyphenyl)-1H-imidazol-4-yl)amino)-5,6-dihydropyrido[3,4-d]pyrimidin-7(8H)-yl)methyl)benzonitrile]: less than 100 nM; for `COc1cc(-n2cnc(Nc3nc4c(c(N5CCC[C@H]5CO)n3)CCN(Cc3cccc(C#N)c3)C4)c2)cc(OC)c1OC` [Compound 220a, (S)-3-((4-(2-(hydroxymethyl)pyrrolidin-1-yl)-2-((1-(3,4,5-trimethoxyphenyl)-1H-imidazol-4-yl)amino)-5,6-dihydropyrido[3,4-d]pyrimidin-7(8H)-yl)methyl)benzonitrile]: less than 100 nM. The same measure for `COc1cc2nc(Nc3cn(-c4cc(OC)c(OC)c(OC)c4)cn3)nc(N3CCC[C@H]3CO)c2cc1OC` [Compound 221c, (S)-(1-(6,7-dimethoxy-2-((1-(3,4,5-trimethoxyphenyl)-1H-imidazol-4-yl)amino)quinazolin-4-yl)pyrrolidin-2-yl)methanol]: less than 100 nM; for `COc1cc(-n2cnc(Nc3nc(N4CCC[C@H]4C(C)(C)O)c4cccn4n3)c2)cc(OC)c1OC` [Compound 222b, (S)-2-(1-(2-((1-(3,4,5-trimethoxyphenyl)-1H-imidazol-4-yl)amino)pyrrolo[2,1-f][1,2,4]triazin-4-yl)pyrrolidin-2-yl)propan-2-ol]: less than 100 nM; for `COc1cc(-n2cnc(Nc3nc(N4CC(F)(F)C[C@H]4CO)c4cccn4n3)c2)cc(OC)c1OC` [Compound 223b, (S)-(4,4-difluoro-1-(2-((1-(3,4,5-trimethoxyphenyl)-1H-imidazol-4-yl)amino)pyrrolo[2,1-f][1,2,4]triazin-4-yl)pyrrolidin-2-yl)methanol]: less than 100 nM. In the case of `COc1cc(-n2cnc(Nc3nc4c(c(N5CCCC5)n3)CN(Cc3ccccc3)CC4)c2)cc(OC)c1OC` [Compound 224b, 6-benzyl-4-(pyrrolidin-1-yl)-N-(1-(3,4,5-trimethoxyphenyl)-1H-imidazol-4-yl)-5,6,7,8-tetrahydropyrido[4,3-d]pyrimidin-2-amine], the IC50 is less than 100 nM. The same measure for `COc1cc(-n2cnc(Nc3nc4c(c(N5CCCC5)n3)CCN(Cc3ccccc3)C4)c2)cc(OC)c1OC` [Compound 225b, 7-benzyl-4-(pyrrolidin-1-yl)-N-(1-(3,4,5-trimethoxyphenyl)-1H-imidazol-4-yl)-5,6,7,8-tetrahydropyrido[3,4-d]pyrimidin-2-amine]: less than 100 nM. The same measure for `COc1cc(-n2cnc(Nc3nc4c(c(N5CCC[C@H]5CO)n3)CCCC4)c2)cc(OC)c1OC` [Compound 226c, (S)-(1-(2-((1-(3,4,5-trimethoxyphenyl)-1H-imidazol-4-yl)amino)-5,6,7,8-tetrahydroquinazolin-4-yl)pyrrolidin-2-yl)methanol]: less than 100 nM.

As usually defined, the IC50 is the midpoint of a concentration-inhibition curve.

These data come from patent US11661426B2, “Imidazole-containing inhibitors of ALK2 kinase” (BioCryst Pharmaceuticals, Inc., priority 2017, dated 2023).
